The values that follow are results of earlier work, collected in patent US4339582A (priority 1981, dated 1982).

The structures appear in SMILES notation.

The conditions of this series: literature, J. Med. Chem. 18, 1126-30 (1975).

Turning to `c1ccc(C2CCC3CCCCN3C2)cc1` (stereo not shown), the reported activity entry is “antidepressant activity”.
